From patent US20080300298A1, “Honokiol Derivates For the Treatment of Proliferative Disorders” (priority 2005, published 2008)
Where two headings read alike, the source gives them in different places.

Legend:
[1] = system: SVR (a transformed endothelial cell line); experiment: SVR cellular proliferation assay; type: cell-based; conditions: Mus musculus, SVR cells; for inhibition at 10 µg/mL: 10 μg/mL; for inhibition at 15 µg/mL: 15 μg/mL
Experimental: The SVR (a transformed endothelial cell line) proliferation assay can be used as a direct measure of antiangiogenic and antitumor activity. This assay serves as a high throughput screen that compares the effects of a compound on proliferation of SVR cells versus an immortalized endothelial cell line, MS1. […] SVR cells were plated in 24-well dishes. The next day, the medium was replaced with fresh medium containing the inhibitors or vehicle controls. Cells were incubated at 37° C. for 72 h (Arbiser, J. L., et al. 1999 J. Am. Acad. Dermatol. 40, 925-929; LaMontagne, K. R., et al. 2000 Am. J. Pathol. 157, 1937-1945), and cell number was determined in triplicate using a Coulter Counter (Hialeah, Fla.). Immortalized and K-Ras transformed rat epithelial cells (RIEpZip and […]) and fibroblasts (NIH3T3 pZip and NIH3T3 pZipK-Ras12V) were maintained at 37° C., 10% CO2, in Dulbecco's modified Eagle's medium supplemented with 5% fetal calf serum (RIE) or 10% calf serum (NIH3T3) (Oldham, S. M., et al. 1996 Proc. Natl. Acad. Sci. U.S.A. 93, 6924-6928; Pruitt, K., et al. 2000 J. Biol. Chem. 275, 40916-40924). Cells were plated at 10^5/well in six-well plates.

cytotoxicity assay (MTT) [2] = type: cell-based; conditions: for EC50 at 3 days: African green monkey; for EC50 at 4 days: human
Experimental: (§1) The cytotoxicity of the honokiol and analogues thereof were assessed in human PBM, CEM and Vero cells (Table 4). Compounds can be evaluated for their potential toxic effects on uninfected human PBM cells, in CEM (T-lymphoblastoid cell line obtained from American Type Culture Collection, Rockville, Md.) and Vero (African green monkey kidney) cells. PBM cells can be obtained from whole blood of healthy seronegative donors (HIV-1) by single-step Ficoll-Hypaque discontinous gradient centrifugation. […] All of the cells can be plated in 96-well cell culture plates containing ten-fold serial dilutions of the test drug. […] At the end of incubation, MTT tetrazolium dye solution (Cell titer 96®, Promega, Madison, Wis.) can be added to each well and incubated overnight. The reaction can be stopped with stop solubilization solution (Promega, Madison, Wis.). […] The plates can be read at a wavelength of 570 nm using an ELISA plate reader (Bio-tek instruments, Inc., Winooski, Vt., Model #EL 312e). The 50% inhibition concentration (IC50) can be determined from the concentration-response curve using the median effect method.

HIV-1 = experiment: HIV assay in PBM cells (RT activity); type: cell-based; conditions: Human immunodeficiency virus 1, PBMC, HIV-1 in human PBM cells; for EC50: read-out: Activity anti-VIH-1 on PBM cells EC50; for EC90: read-out: Activity anti-VIH-1 on PBM cells EC90
Experimental: The antiviral activity of the synthesized compounds and honokiol were evaluated against HIV-1 in human peripheral blood mononuclear (PBM) cells (Table 4).
Human peripheral blood mononuclear (PBM) cells (which can be obtained from Atlanta Red Cross) can be isolated by Ficoll-Hypaque discontinuous gradient centrifugation from healthy seronegative donors. Cells can be stimulated with phytohemagglutinin A (Difco, Sparks, Md.) for 2-3 days prior to use. HIV-1, such as HIV-1LAI can be obtained from the Centers for Disease Control and Prevention (Atlanta, Ga.), and can be used as the standard reference virus for the antiviral assays. The molecular infectious clones HIV-1xxBru and HIV-1M184Vpin can be obtained from Dr. John Mellors (University of Pittsburgh). Infections can be done in bulk for one hour, either with 100 TCID50/1×10^7 cells for a flask (T25) assay or with 200 TCID50/6×10^5 cells/well for a 24 well plate assay. Cells can be added to a plate or flask containing a ten-fold serial dilution of the test compound. Assay medium can be RPMI-1640 supplemented with heat inactivated 16% fetal bovine serum, 1.6 mM L-glutamine, 80 IU/ml penicillin, 80 μg/ml streptomycin, 0.0008% DEAE-Dextran, 0.045% sodium bicarbonate, and 26 IU/ml recombinant interleukin-2 (Chiron Corp, Emeryville, Calif.). AZT can be used as a positive control for the assay. Untreated and uninfected PBM cells can be grown in parallel at equivalent cell concentrations as controls. The cell cultures can be maintained in a humidified 5% CO2-air at 37° C. for 5 days and supernatants can be collected for reverse transcriptase (RT) activity.
Supernatants can be centrifuged at 12,000 rpm for 2 hours to pellet the virus. The pellet can be solubilized with vortexing in 100 μl virus solubilization buffer (VSB) containing 0.5% Triton X-100, 0.8 M NaCl, 0.5 mM phenylmethylsulfonyl fluoride, 20% glycerol, and 0.05 M Tris, pH 7.8. Ten μL of each sample can be added to 75 μL RT reaction mixture (0.06 M Tris, pH 7.8, 0.012 M MgCl2, 0.006 M dithiothreitol, 0.006 mg/ml poly (rA)n, oligo (dT)12-18, 96 μg/ml dATP, and 1 μM of 0.08 mCi/ml ^3H-thymidine triphosphate (Moravek Biochemicals, Brea, Calif.) and can be incubated at 37° C. for 2 hours. The reaction can be stopped by the addition of 100 μL 10% trichloroacetic acid containing 0.05% sodium pyrophosphate. The acid insoluble product can be harvested onto filter paper using a Packard Harvester (Meriden, Conn.), and the RT activity can be read on a Packard Direct Beta Counter (Meriden, Conn.). The RT results can be expressed in counts per minute (CPM) per milliliter. The antiviral 50% effective concentration (EC50) and 90% effective concentration (EC90) can be determined from the concentration-response curve using the median effect method (Belen'kii, S. M.; Schinazi, R. S. Multiple drug effect analysis with confidence interval. Antiviral. Res. 1994, 25, 1-11).

cytotoxicity assay (MTT) [3] = type: cell-based, human; conditions: human
Experimental: as §1

[4] = toxicity in mice (Table 5); conditions: mouse, in vivo
Source text: In vivo models of cancer growth include xenografts of human tumor cells injected into animals, such as mice, particularly immunocomprimised mice. Toxicity of the compounds can also be assessed in these assays through daily administration of the compounds to the animals combined with daily monitoring of the animals. The animals can also be monitored for two weeks to look for weight loss, as well as other common toxicities known to one skilled in the art, such as altered grooming, decreased movement of mice, and tremor. The compounds can also be tested for their ability to inhibit tumor growth in animals. SVR angiosarcoma tumor cells, for example, can be injected into animals, such as immunocompromised mice. Mice can be injected with approximately one million SVR cells subcutaneously, and when tumors become palpable, can be treated with a beginning dose (such as 120 mg/kg intraperitoneally) once daily. Drugs that are active at 120 mg/kg can then be retested at lower doses of 80 mg/kg, 40 mg/kg, etc. Tumor volume can be calculated using the formula (w2×L)0.52, where w (width) represents the smallest dimension of the tumor. Mice can be treated for a period of time such as approximately 30 days, or until tumor growth reaches 1 cm^3.

[5] = Vero kidney cells, Vero cells, read-out: Cytotoxicity (EC50-μM) in: VERO
[6] = CEM T-lymphoblastoid cells, CEM cells, read-out: Cytotoxicity (EC50-μM) in: CEM
[7] = uninfected PBM cells, read-out: Cytotoxicity (EC50-μM) in: PBM

Structure (SMILES) | inhibition at 10 µg/mL [1] | inhibition at 15 µg/mL [1] | EC50 (HIV-1) | EC90 (HIV-1) | EC50 at 5 days (cytotoxicity assay (MTT) [3]; [7]) | further results
C=CCc1cc(C(C)(C)c2ccc(O)c(CC=C)c2)ccc1O | 32.9% | 57.1% |  |  |  | 
C=CCOc1cc2c(cc1OCC=C)C1c3ccc(OCC=C)c(OCC=C)c3OCC1(O)C2 (stereo not drawn) | 13.8% | 41.8% |  |  |  | 
C=CCc1cc(C(=C(Cl)Cl)c2ccc(O)c(CC=C)c2)ccc1O | 53.6% | 75.6% |  |  |  | 
C=CCc1cc(C(c2ccc(O)c(CC=C)c2)c2ccccn2)ccc1O | 25.2% | 46.1% |  |  |  | 
C=CCc1ccc2c(c1)-c1cc(CC=C)ccc1OC(C)(C)O2 [drawing 42] |  |  | 13.6 µM | 43.3 µM | 75.3 µM | EC50 at 3 days (cytotoxicity assay (MTT) [2]; [5]): > 100 µM; EC50 at 4 days (cytotoxicity assay (MTT) [2]; [6]): 11.6 µM
C=CCc1ccc(O)c(-c2ccc(O)c(CC=C)c2)c1 [drawing 43] |  |  | 3.3 µM | 22.7 µM |  | EC50 at 3 days (cytotoxicity assay (MTT) [2]): 22.5 µM; EC50 at 4 days (cytotoxicity assay (MTT) [2]): 10.9 µM; EC50 at 5 days (cytotoxicity assay (MTT) [3]): 16.1 µM
CCCc1ccc(O)c(-c2ccc(O)c(CCC)c2)c1 [drawing 44] |  |  | 16.9 µM | 69.4 µM | 45.9 µM | EC50 at 3 days (cytotoxicity assay (MTT) [2]; [5]): 19.8 µM; EC50 at 4 days (cytotoxicity assay (MTT) [2]; [6]): 10.4 µM
C=CCc1ccc(OC)c(-c2ccc(OC)c(CC=C)c2)c1 [drawing 45] |  |  | 54.3 µM | > 100 µM | > 100 µM | EC50 at 3 days (cytotoxicity assay (MTT) [2]; [5]): > 100 µM; EC50 at 4 days (cytotoxicity assay (MTT) [2]; [6]): 19.1 µM
C=CCc1cccc(-c2cccc(CC=C)c2O)c1O [drawing 46] |  |  | 34.8 µM | 63 µM | > 100 µM | EC50 at 3 days (cytotoxicity assay (MTT) [2]; [5]): > 100 µM; EC50 at 4 days (cytotoxicity assay (MTT) [2]; [6]): > 100 µM
C=CCc1cc(-c2ccc(O)c(CC=C)c2)ccc1O [drawing 47] |  |  | 19.4 µM | 66.4 µM | > 100 µM | EC50 at 3 days (cytotoxicity assay (MTT) [2]; Vero cells, read-out: Cytotoxicity (EC50-μM) in: VERO): 33.2 µM; EC50 at 4 days (cytotoxicity assay (MTT) [2]; CEM cells, read-out: Cytotoxicity (EC50-μM) in: CEM): 23 µM
C=CCc1ccc(O)c(-c2ccc(O)c(CC=C)c2)c1 [drawing 48] | 59.9% | 85% |  |  |  | 
CCCc1ccc(O)c(-c2ccc(O)c(CCC)c2)c1 [drawing 49] | 79.2% | 89.6% |  |  |  | 
C=CCc1cccc(-c2cccc(CC=C)c2O)c1O [drawing 50] | 40.8% | 57.2% |  |  |  | 
C=CCc1ccc2c(c1)-c1cc(CC=C)ccc1OC(C)(C)O2 [drawing 54] | 61.9% | 59.7% |  |  |  | 
C=CCc1ccc(OC)c(-c2ccc(OC)c(CC=C)c2)c1 [drawing 55] | 40.6% | 47.2% |  |  |  | 
C=CCc1cc(-c2ccc(O)c(CC=C)c2)ccc1O [drawing 56] | 44.9% | 56.2% |  |  |  | Toxicity [4]: Toxic
